Results reported in patent publication US6060458A (The United States of America as represented by the …, priority 1998, dated 2000).
Residue numbers refer to the chain shown, from its start.

What was measured:
[1] = tested on: wild-type human alkyltransferase (AGT); test: Inactivation of purified wild-type human AGT, residual activity on [3H]-methylated DNA substrate; format: biochemical; settings: 30 min at 37° C. incubation with inactivator
Experimental: (§1) Whether or not a given single-stranded oligodeoxyribonucleotide inactivates a wild-type or mutant human alkyltransferase can be determined by measuring alkyltransferase depletion. For example, a stock solution (100 mM) of a given single-stranded oligodeoxyribonucleotide in an aqueous or mixed aqueous/organic solvent can be prepared. Solutions of the human wild-type AGT, mutant human AGT, or the AGT from HT29 cells and cell extracts (Domoradzki et al., Carcinogenesis 5: 1641-1647 (1984)) can be incubated with varying concentrations (between 0 and 400 μM, for example) of the oligodeoxyribonucleotide for 30 min in a buffer containing 50 mM Tris-HCl, pH 7.5, 0.1 mM EDTA, and 5 mM dithiothreitol, and alkyltransferase depletion can be measured. Alternatively, cells can be plated at a density of 5×10^6 cells/T75 flask and allowed to grow for three days, at which time the medium can be replaced with medium containing a given concentration of an oligodeoxyribonucleotide. After four hours, cells can be harvested and frozen at -80° C. for analysis of alkyltransferase depletion later. Alkyltransferase depletion is determined by measuring loss of O^6 -[^3 H]methylguanine, for example, from a [^3 H]methylated DNA substrate, for example, which can be prepared by reacting [^3 H]methylnitrosourea (21.5 Ci/mmol) with calf thymus DNA as described previously (Domoradzki et al. (1984), supra; and Dolan et al. (1990), supra).
(§2) Wild-type human AGT and mutants thereof, namely P140A and G156A, were prepared using the pIN vector expression system. pIN-AGT, pIN-P140A (Pro-140 to Ala) and pIN-G156A (Gly-156 to Ala) (Crone et al. (1993), supra; Crone et al. (1994), supra; and Pegg et al. (1993), supra).
(§3) The wild-type and mutant AGT proteins expressed from the pIN vectors were purified to homogeneity by ammonium sulfate precipitation, Mono-S chromatography and gel filtration as previously described (Pegg et al. (1993), supra; and Kanugula et al. (1995), supra). […] Afterwards, residual AGT activity was determined by a 30 min incubation with a [^3 H]-methylated DNA substrate (1.0 ml volume), which had been methylated by reaction with N-[^3 H]-methyl-N-nitrosourea as previously described (Dolan et al. (1993), supra; and Dolan et al. (1991), supra).

[2] = biological target: T1, mutant human alkyltransferase G156A (Homo sapiens, UniProt P16455, G156A); test: Inactivation of purified mutant human AGT G156A, residual activity on [3H]-methylated DNA substrate; format: biochemical; settings: 30 min at 37° C. incubation with inactivator
T1 construct: made in house; E. coli by own knowledge of pIN vectors
T1 sequence (P16455 1-207 G156A): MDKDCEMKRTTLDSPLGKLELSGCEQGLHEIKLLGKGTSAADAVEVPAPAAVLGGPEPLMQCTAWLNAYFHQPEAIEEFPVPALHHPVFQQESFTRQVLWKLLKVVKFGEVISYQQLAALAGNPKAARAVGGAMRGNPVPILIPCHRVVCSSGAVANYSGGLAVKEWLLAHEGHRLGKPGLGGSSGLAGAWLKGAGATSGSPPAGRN
Experimental: as §1, §2, §3

[3] = biological target: T2, mutant human alkyltransferase P140A (Homo sapiens, UniProt P16455, P140A); test: Inactivation of purified mutant human AGT P140A, residual activity on [3H]-methylated DNA substrate; format: biochemical; settings: 30 min at 37° C. incubation with inactivator
T2 construct: made in house; E. coli by own knowledge of pIN vectors
T2 sequence (P16455 1-207 P140A): T1 sequence (P16455 1-207 G156A) with P140A, A156G
Experimental: as §1, §2, §3

AGT = settings: cell culture; maximal reduction attained (Pegg et al. (1995)); cited from earlier work
[4] = biological target: wild-type human alkyltransferase (AGT); settings: data previously published, read-out: ED50 for inactivation of AGT; cited from earlier work
[5] = biological target: T1, mutant human alkyltransferase G156A; settings: G156A mutant AGT; data previously published; read-out: ED50 for inactivation of AGT; cited from earlier work
[6] = biological target: T2, mutant human alkyltransferase P140A; settings: P140A mutant AGT; data previously published; read-out: ED50 for inactivation of AGT; cited from earlier work

Molecule | ED50 for inactivation of AGT (concentration needed to reduce AGT activity by 50%) [1] [nM] | ED50 for inactivation of AGT (concentration needed to reduce AGT activity by 50%) [2] [nM] | ED50 for inactivation of AGT (concentration needed to reduce AGT activity by 50%) [3] [nM] | reduction of AGT activity (AGT) [%] | IC50 [4] [nM] | IC50 [5] [µM] | IC50 [6] [µM]
5'-d(TGAb^6 GCTG)-3' | 7 | 50 | 60 | – | – | – | –
5'-d(GTGAb^6 GCTGT)-3' | 8 | 90 | 60 | – | – | – | –
5'-d(Ab^6 GC)-3' | 90 | 4600 | 770 | – | – | – | –
COc1nc(N)nc2[nH]cnc12 [O^6 -methylguanine] | – | – | – | 85 | – | – | –
5'-d(GAb^6 GCT)-3' | 13 | 60 | 50 | – | – | – | –
Nc1nc(OCc2ccccc2)c2[nH]cnc2n1 [O^6 -benzylguanine] | – | – | – | – | 200 | – | –
5'-d(TGTGAb^6 GCTGTG)-3' | 13 | 110 | 75 | – | – | – | –
Nc1nc(OCc2ccccc2)c2ncn([C@H]3C[C@H](O)[C@@H](CO)O3)c2n1 [O^6-benzyl-2'-deoxyguanosine] | – | – | – | – | 2000 | > 100 | > 20
